Measurements reported in US20260200928A1, “THERAPEUTIC COMPOUNDS” (Sanofi, priority 2022, published 2026).

These compounds were tested against T1, human IL-17A (Homo sapiens, UniProt Q16552) (assay: IL-17A AlphaLISA competition assay (block of IL-17A binding to its receptor IL-17RA)). Settings: mean IC50 (n≥2), block of IL-17A binding to IL-17RA.
T1 construct: purchased R&D Systems 7955-IL/CF
T1 sequence (Q16552 24-155): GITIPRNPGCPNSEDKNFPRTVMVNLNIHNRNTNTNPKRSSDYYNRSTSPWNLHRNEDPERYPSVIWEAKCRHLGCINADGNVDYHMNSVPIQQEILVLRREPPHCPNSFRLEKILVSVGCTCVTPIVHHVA
Method: The ability of the compounds to block binding of IL-17A to its receptor, IL-17RA, was analysed in a competition assay using AlphaLISA technology (Perkin Elmer). The assay is a bead based AlphaLISA where the IL-17RA is captured on the acceptor bead via an Fc tag and IL-17A is captured on the streptavidin donor bead via a biotinylated anti-IL17A antibody.
Assay buffer was prepared by adding 0.05% Tween-20 (v/v) and 0.1% BSA to Phosphate Buffered Saline (PBS). The assay was carried out in 384-well white low volume plates (Perkin Elmer #6008359). 10 μL of a 7.5 nM stock of human recombinant IL-17A (R&D Systems 7955-IL/CF) diluted in assay buffer was dispensed into the assay plate and compounds or DMSO vehicle control were added in a volume of 75 nL using an acoustic dispenser (Beckman). The compounds were pre-incubated with the IL-17A for 30 min at room temperature prior to addition of 5 μL of a 5 nM stock of human recombinant IL-17RA/Fc chimera (R&D Systems 177-IR-100) diluted in assay buffer. The IL-17A was incubated with the receptor for a further 90 minutes at room temperature before addition of 5 μL of a mixture of anti-human Fc IgG acceptor beads (75 μg/mL, Perkin Elmer AL1030) and anti-IL-17A biotin conjugated antibody (5 nM, Abcam, #ab155575) in assay buffer. After a further 30 min incubation at room temperature, 5 μL of streptavidin donor beads (75 μg/mL, Perkin Elmer 6760002S) were added and the plate was incubated for 3 h in the dark.
The AlphaLisa signal was measured using the PheraSTAR plate reader (BMG). Data were analysed using GeneData Screener and fitted to a 4-parameter logistic equation. The IC50 values were calculated using the DMSO vehicle as the negative control and a high concentration (4 μM) of a reference IL-17A inhibitor as the positive control. All compounds were analysed at least in duplicate (n≥2).
`CCC(c1ccnc(NC(=O)C(NC(=O)c2ccnn2C)C2CCC(C)CC2)c1)N1CC(C(F)(F)F)NC1=O` [Example 259, 1-methyl-N-((S)-1-((1r,4S)-4-methylcyclohexyl)-2-oxo-2-((4-((R)-1-((S)-2-oxo-4-(trifluoromethyl)imidazolidin-1-yl)propyl)pyridin-2-yl)amino)ethyl)-1H-pyrazole-5-carboxamide] gave an IC50 of 6 nM.
With `Cn1nccc1C(=O)NC(C(=O)Nc1cc(Cc2ccc(=O)n(C)c2)ccn1)C1CCC(F)(F)CC1` (stereo not shown) [Example 52, N-(1-(4,4-difluorocyclohexyl)-2-((4-((1-methyl-6-oxo-1,6-dihydro-pyridin-3-yl)methyl)pyridin-2-yl)amino)-2-oxoethyl)-1-methyl-1H-pyrazole-5-carboxamide] the IC50 was 23900 nM.
For `CCc1oncc1C(=O)N[C@H](C(=O)Nc1cc(C[C@H]2C[C@@H](C(F)(F)F)NC2=O)ccn1)C1CCC(F)(F)CC1` [Example 218, N-((S)-1-(4,4-difluorocyclohexyl)-2-oxo-2-((4-(((3S,5S)-2-oxo-5-(trifluoromethyl)pyrrolidin-3-yl)methyl)pyridin-2-yl)amino)ethyl)-5-ethylisoxazole-4-carboxamide], the IC50 was 158 nM.
`Cn1nccc1C(=O)NC(COC(C)(C)C)C(=O)Nc1cc(CN2C[C@@H](C(F)(F)F)NC2=O)ccn1` (stereo partly drawn) [Example 83, N-(3-(tert-butoxy)-1-oxo-1-((4-(((S)-2-oxo-4-(trifluoromethyl)imidazolidin-1-yl)methyl)pyridin-2-yl)amino)propan-2-yl)-1-methyl-1H-pyrazole-5-carboxamide] showed an IC50 of 7110 nM.
With `CCc1conc1C(=O)N[C@H](C(=O)Nc1cc([C@@H](COC)N2CC(F)(F)CNC2=O)ccn1)C1CCC(F)(F)CC1` [Example 177, N-((S)-2-((4-((S)-1-(5,5-difluoro-2-oxotetrahydropyrimidin-1(2H)-yl)-2-methoxyethyl)pyridin-2-yl)amino)-1-(4,4-difluorocyclohexyl)-2-oxoethyl)-4-ethylisoxazole-3-carboxamide] the IC50 was 24 nM.
`COC[C@H](c1ccnc(NC(=O)[C@@H](NC(=O)c2nocc2C2CCC2)C2CCC(F)(F)CC2)c1)N1C[C@@H](C(F)(F)F)NC1=O` [Example 191, 4-cyclobutyl-N-((S)-1-(4,4-difluorocyclohexyl)-2-((4-((S)-2-methoxy-1-((S)-2-oxo-4-(trifluoromethyl)imidazolidin-1-yl)ethyl)pyridin-2-yl)amino)-2-oxoethyl)isoxazole-3-carboxamide] showed an IC50 of 31 nM.
With `COC[C@H](c1ccnc(NC(=O)[C@@H](NC(=O)c2nocc2OCC(F)F)C2CCC(F)(F)CC2)c1)N1C[C@@H](C(F)(F)F)NC1=O` [Example 192, N-((S)-1-(4,4-difluorocyclohexyl)-2-((4-((S)-2-methoxy-1-((S)-2-oxo-4-(trifluoromethyl)imidazolidin-1-yl)ethyl)pyridin-2-yl)amino)-2-oxoethyl)-4-(2,2-difluoroethoxy)isoxazole-3-carboxamide] the IC50 was 105 nM.
Work on `CCn1nccc1C(=O)NC(C(=O)Nc1cc(C(COC)NC(=O)CCC(F)(F)F)ccn1)C1CCC(C)CC1` [Example 244, 1-ethyl-N-((1S)-2-((4-(2-methoxy-1-(4,4,4-trifluorobutanamido)ethyl)pyridin-2-yl)amino)-1-((1r,4S)-4-methylcyclohexyl)-2-oxoethyl)-1H-pyrazole-5-carboxamide] yielded an IC50 of 47 nM.
`COC[C@H](c1ccnc(NC(=O)C(NC(=O)c2nonc2C)C2CCC(F)CC2)c1)N1C[C@@H](C(F)(F)F)NC1=O` (single isomer, unassigned) [Example 287] showed an IC50 of 47 nM.
`COC[C@H](c1ccnc(NC(=O)[C@@H](NC(=O)c2ccnn2C(C)C)C(C2CC2)C2CC2)c1)N1C[C@@H](C(F)(F)F)NC1=O` [Example 229, N-((S)-1,1-dicyclopropyl-3-((4-((S)-2-methoxy-1-((S)-2-oxo-4-(trifluoromethyl)imidazolidin-1-yl)ethyl)pyridin-2-yl)amino)-3-oxopropan-2-yl)-1-isopropyl-1H-pyrazole-5-carboxamide] gave an IC50 of 86 nM.
`C[C@@H]1CN(Cc2ccnc(NC(=O)[C@@H](NC(=O)c3ccnn3C3CC3)C(C3CC3)C3CC3)c2)C(=O)N1` [Example 34, 1-cyclopropyl-N—((S)-1,1-dicyclopropyl-3-((4-(((R)-4-methyl-2-oxoimidazolidin-1-yl)methyl)pyridin-2-yl)amino)-3-oxopropan-2-yl)-1H-pyrazole-5-carboxamide] was tested, and the IC50 was 1470 nM.
`C[C@@H](OC(C)(C)C)[C@H](NC(=O)c1ccnn1C)C(=O)Nc1cc(CN2C[C@@H](C(F)(F)F)NC2=O)ccn1` [Example 103, N-((2S,3R)-3-(tert-butoxy)-1-oxo-1-((4-(((S)-2-oxo-4-(trifluoromethyl)-imidazolidin-1-yl)methyl)pyridin-2-yl)amino)butan-2-yl)-1-methyl-1H-pyrazole-5-carboxamide] was tested, and the IC50 was 1740 nM.
With `CC(C)n1nccc1C(=O)N[C@H](C(=O)Nc1cc(C(NC(=O)CCC(F)(F)F)C2CC2)ccn1)C1CCC(F)(F)CC1` (stereo partly drawn) [Example 110, N-((1S)-2-((4-(cyclopropyl(4,4,4-trifluorobutanamido)methyl)pyridin-2-yl)amino)-1-(4,4-difluorocyclohexyl)-2-oxoethyl)-1-isopropyl-1H-pyrazole-5-carboxamide] the IC50 was 30 nM.
`COC[C@H](c1ccnc(NC(=O)C(NC(=O)c2nonc2C2CC2)C2CCC(F)CC2)c1)N1C[C@@H](C(F)(F)F)NC1=O` (single isomer, unassigned) [Example 276] gave an IC50 of 24 nM.
For `CCn1nccc1C(=O)N[C@@H](COC(C)(C)C(F)(F)F)C(=O)Nc1cc([C@@H](COC)N2C[C@@H](C(F)(F)F)NC2=O)ccn1` [Example 270, 1-ethyl-N-((S)-1-((4-((S)-2-methoxy-1-((S)-2-oxo-4-(trifluoromethyl)imidazolidin-1-yl)ethyl)pyridin-2-yl)amino)-1-oxo-3-((1,1,1-trifluoro-2-methylpropan-2-yl)oxy)propan-2-yl)-1H-pyrazole-5-carboxamide], the IC50 was 29 nM.
Work on `CC(C)(C)OC(=O)NCC1(c2nocc2C(=O)N[C@H](C(=O)Nc2cc(CN3C[C@@H](C(F)(F)F)NC3=O)ccn2)C2CCC(F)(F)CC2)CC1` [Example 19, Tert-butyl ((1-(4-(((S)-1-(4,4-difluorocyclohexyl)-2-oxo-2-((4-(((S)-2-oxo-4-(trifluoromethyl)imidazolidin-1-yl)methyl)pyridin-2-yl)amino)ethyl)-carbamoyl)isoxazol-3-yl)cyclopropyl)methyl)carbamate] yielded an IC50 of 843 nM.
With `C[C@H]1CC[C@H]([C@@H](NC(=O)OCc2ccccc2)C(=O)Nc2cc(CN3C[C@H](C(F)(F)F)NC3=O)ccn2)CC1` [Example 5, Benzyl ((S)-1-((1r,4S)-4-methylcyclohexyl)-2-oxo-2-((4-(((S)-2-oxo-4-(trifluoromethyl)imidazolidin-1-yl)methyl)pyridin-2-yl)amino)ethyl)carbamate] the IC50 was 179 nM.
`COC[C@H](c1ccnc(NC(=O)[C@@H](NC(=O)c2nocc2C)C2CCC(F)(F)CC2)c1)N1C[C@@H](C(F)(F)F)NC1=O` [Example 196, N-((S)-1-(4,4-difluorocyclohexyl)-2-((4-((S)-2-methoxy-1-((S)-2-oxo-4-(trifluoromethyl)imidazolidin-1-yl)ethyl)pyridin-2-yl)amino)-2-oxoethyl)-4-methylisoxazole-3-carboxamide] gave an IC50 of 39 nM.
`COCC(c1ccnc(NC(=O)C(NC(=O)C(F)(F)C(C)C)C2CCC(C)CC2)c1)N1CC(C(F)(F)F)NC1=O` (single isomer, unassigned) [Example 255] gave an IC50 of 71 nM.
